Measured values as given in patent publication US7307099B2, “4-(1-(sulfonyl)-1h-indol-2-yl)-4-(hydroxy)-cyclohexa-2,5-dienone compounds and analogs thereof as therapeutic agents” (Cancer Research Technology Limited, priority 2002, dated 2007).
Read-outs that look alike come from different tables or passages of the source.

Assays:
[1] = test system: 60 human cancer cell lines; assay: NCI in vitro 60 cell panel (48 hour drug exposure); type: cell-based; conditions: for LC50: read-out: Mean log10 LC50 (converted)
Experimental: (§1) Compounds were tested for in vitro activity (48 hour drug exposure) across 60 human cancer cell lines through the National Cancer Institute (NCl) Developmental Therapies Screening Program (Boyd et al., 1995).

[2] = test system: CAKI-1 (renal); assay: NCI in vitro 60 cell panel, CAKI-1; type: cell-based; conditions: Homo sapiens, read-out: Most Senstive Cells Lines mean log10 LC50 (converted)
Experimental: as §1

[3] = test system: HCT 116 colon carcinoma; assay: Growth inhibitory assay (MTT, 72 hour exposure), HCT 116; type: cell-based; conditions: Homo sapiens, HCT 116, MTT
Experimental: (§2) Compounds were prepared as 10 mM top stocks, dissolved in DMSO, and stored at 4° C., protected from light, for a maximum period of 4 weeks. Human derived cell lines (HCT 116, HT29 colon carcinoma) were routinely cultivated at 37° C. in an atmosphere of 5% CO2 in RPMI 1640 medium supplemented with 2 mM L-glutamine and 10% fetal calf serum and subcultured twice weekly to maintain continuous logarithmic growth. Cells were seeded into 96-well microtiter plates at a density of 5×10^3 per well and allowed 24 hours to adhere before drugs were introduced (final concentration 0.1 nM-100 μM, n=8). Serial drug dilutions were prepared in medium immediately prior to each assay. At the time of drug addition and following 72 hour exposure, MTT was added to each well (final concentration 400 µg/mL). Incubation at 37° C. for 4 hr allowed reduction of MTT by mitochondrial dehydrogenase to an insoluble formazan product. Well contents were aspirated and formazan solubilized by addition of DMSO:glycine buffer (pH 10.5) (4:1). Absorbance was measured using an Anthos Labtec systems plate reader at 550 nm, and used as a measure of cell viability; thus cell growth or drug toxicity was determined.

[4] = test system: HT29 colon carcinoma; assay: Growth inhibitory assay (MTT, 72 hour exposure), HT29; type: cell-based; conditions: Homo sapiens, HT 29, MTT
Experimental: as §2

[5] = test system: HCT-116 (colon); assay: NCI in vitro 60 cell panel, HCT-116; type: cell-based; conditions: Homo sapiens, read-out: Most Senstive Cells Lines mean log10 LC50 (converted)
Experimental: as §1

[6] = Maximum tolerated dose in mice; conditions: mouse, in vivo, daily (×5) schedule
Experimental: (§3) The in vivo activity of SIQ-01 was studied. The maximum tolerated dose of SIQ-01 in mice is 30 mg/kg on a daily (×5) schedule. Combination treatment of SIQ-01 and cisplatin was active against the HCT116 colon carcinoma tumour when administered to tumour-bearing mice (15 mg SIC-01/kg administered by intraperitoneal injection on days 1-5 and 8-10; 4 mg cisplatin/kg administered subcutaneously on days 1 and 8), and gave a maximum T/C (Test/Control) of 49%. Treatment with cisplatin alone (same regimen) gave a maximum T/C (Test/Control) of 56%.

[7] = test system: HCT116 colon carcinoma tumour; assay: HCT116 colon carcinoma tumour in tumour-bearing mice; type: in vivo
Experimental: as §3

[8] = test system: LOX IMVI (melanoma); assay: NCI in vitro 60 cell panel, LOX IMVI; type: cell-based; conditions: Homo sapiens, read-out: Most Senstive Cells Lines mean log10 LC50 (converted)
Experimental: as §1

[9] = test system: ACHN (renal); assay: NCI in vitro 60 cell panel, ACHN; type: cell-based; conditions: Homo sapiens, read-out: Most Senstive Cells Lines mean log10 LC50 (converted)
Experimental: as §1

[10] = target: T1, Thioredoxin/Thioredoxin Reductase (Tx/TR) (Homo sapiens, UniProt P10599); assay: Thioredoxin/thioredoxin reductase-catalysed reduction of insulin; type: biochemical; conditions: 30 min at 37° C.
T1 construct: was purified from human placenta as previously described; made in house; host or cells: hTrx: Escherichia coli; TR: purified from human placenta tissue
T1 sequence (P10599 2-105 limits assumed): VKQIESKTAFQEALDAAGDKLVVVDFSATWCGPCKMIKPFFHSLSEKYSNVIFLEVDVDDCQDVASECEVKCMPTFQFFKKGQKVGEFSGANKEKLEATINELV
Experimental: Assays were performed using methods analogous to those described in Kirkpatrick et al., 1999 and Kunkel et al., 1997.
[…] (specific activity 43.6 μmol NADPH reduced/min/mg protein at 21° C.) was purified from human placenta as previously described (Oblong et al., 1993). Recombinant hTrx was expressed in Escherichia coli and purified as previously described (Gasdaska et al., 1994). The Trx and TR were stored at −20° C. with 5 mM dithiothreitol (DTT) which was removed before use with a desalting column (PDIO, Pharmacla, Uppsala, Sweden).
Microtitre plate colorimetric assays, based on the increase in absorbance at 405 nm which occurs as dithionitrobenzoic acid (DTNB) is reduced by the enzyme-mediated transfer of reducing equivalents from NADPH, were used to measure TR/Trx-dependent insulin-reduction and TR activity (see, e.g., Kunkel et al., 1997).
Thioredoxin reductase/thioredox […] insulin reducing activity was measured in an incubation with a final volume of 60 μL containing 100 mM HEPES buffer, pH 7.2, 5 mM EDTA (HE buffer), 1 mM NADPH, 1.0 μM thioredoxin reductase, 0.8 μM thioredoxin, and 2.5 mg/ml bovine insulin in flat-bottom 96-well microtitre plates. […] The reaction was stopped by the addition of 100 μL of 6 M guanidine HCl, 50 mM Tris, pH 8.0, and 10 mM DTNB, and the absorbance measured at 405 nm.

[11] = test system: UO-31 (renal); assay: NCI in vitro 60 cell panel, UO-31; type: cell-based; conditions: Homo sapiens, read-out: Most Senstive Cells Lines mean log10 LC50 (converted)
Experimental: as §1

[12] = test system: U251 (CNS cancer); assay: NCI in vitro 60 cell panel, U251; type: cell-based; conditions: Homo sapiens, U-251, read-out: Most Senstive Cells Lines mean log10 LC50 (converted)
Experimental: as §1

[13] = test system: RXF 393 (renal); assay: NCI in vitro 60 cell panel, RXF 393; type: cell-based; conditions: Homo sapiens, read-out: Most Senstive Cells Lines mean log10 LC50 (converted)
Experimental: as §1

[14] = in fetal calf serum; cited from earlier work
[15] = 60 cell, as in Table 3, read-out: Mean GI50
[16] = mean across 60 cell lines, 48 hour drug exposure
[17] = mean across 60 cell lines, 48 hour drug exposure, read-out: mean log10 GI50 (converted)

`O=C1C=CC(O)(c2cc3ccccc3n2S(=O)(=O)c2ccccc2)C=C1` [SIQ-01, 4-(1-benzenesulfonyl-1H-indol-2-yl)-4-hydroxy-cyclohexa-2,5-dienone] gave a GI50 [1, 15] of 152 nM, an LC50 [1, 16] of 2.95 µM and a GI50 [1, 17] of 38.9 nM. For the same compound, the CC50 [2] was 52.5 nM, the IC50 [3] was 86 nM and the IC50 [4] was 259 nM. The CC50 [5] was 33.1 nM, the MTD at 5 days [6] was 30 mg/kg and the “maximum T/C (Test/Control)” value ([7]; combination with cisplatin: 15 mg/kg i.p. days 1-5 and 8-10, 4 mg cisplatin/kg s.c. days 1 and 8) was 49%.
With `COc1ccc2c(c1)cc(C1(O)C=CC(=O)C=C1)n2S(=O)(=O)c1ccccc1` [SIQ-02, 4-(1-benzenesulfonyl-5-methoxy-1H-indol-2-yl)-4-hydroxy-cyclohexa-2,5-dienone] the LC50 [1, 16] was 6.17 µM, the GI50 [1, 17] was 135 nM and the CC50 [8] was 468 nM. The CC50 [9] was 447 nM.
Compound `O=C1C=CC(O)(c2cc3cc(F)ccc3n2S(=O)(=O)c2ccccc2)C=C1` [SIQ-03, 4-(1-benzenesulfonyl-5-fluoro-1H-indol-2-yl)-4-hydroxy-cyclohexa-2,5-dienone] has a GI50 [1, 15] of 527 nM, an LC50 [1, 16] of 3.24 µM and a GI50 [1, 17] of 66.1 nM. For the same compound, the CC50 [8] was 63.1 nM, the IC50 [3] was 68 nM and the IC50 [4] was 347 nM. For the same compound, the CC50 [5] was 50.1 nM.
For `Cc1ccc(S(=O)(=O)n2c(C3(O)C=CC(=O)C=C3)cc3ccccc32)cc1` [SIQ-04], the GI50 [1, 15] was < 100 nM, the LC50 [1, 16] was 7.24 µM and the GI50 [1, 17] was 112 nM. For the same compound, the CC50 [8] was 234 nM, the IC50 [3] was 36 nM and the IC50 [4] was 206 nM. For the same compound, the IC50 [10] was < 100 µM and the CC50 [5] was 47.9 nM.
Work on `COc1ccc(S(=O)(=O)n2c(C3(O)C=CC(=O)C=C3)cc3ccccc32)cc1` [SIQ-05] yielded an LC50 [1, 16] of 6.31 µM, a GI50 [1, 17] of 162 nM and a CC50 [8] of 380 nM. It also gave an IC50 [3] of 203 nM, an IC50 [4] of 420 nM and a CC50 [5] of 112 nM.
Compound `O=C1C=CC(O)(c2cc3ccccc3n2S(=O)(=O)c2ccc(F)cc2)C=C1` [SIQ-06, 4-[1-(4-fluoro-benzenesulfonyl)-1H-indol-2-yl]-4-hydroxy-cyclohexa-2,5-dienone] has an LC50 [1, 16] of 7.76 µM, a GI50 [1, 17] of 234 nM and a CC50 [5] of 363 nM. For the same compound, the CC50 [11] was 631 nM.
With `O=C1C=CC(O)(c2cc3ccccc3n2S(=O)(=O)c2ccc3ccccc3c2)C=C1` [SIQ-07] the LC50 [1, 16] was 5.62 µM, the GI50 [1, 17] was 191 nM and the CC50 [12] was 513 nM. The IC50 [3] was 193 nM, the IC50 [4] was 274 nM and the CC50 [5] was 372 nM.
Compound `CC(C)c1cc(C(C)C)c(S(=O)(=O)n2c(C3(O)C=CC(=O)C=C3)cc3ccccc32)c(C(C)C)c1` [SIQ-09] has an LC50 [1, 16] of 11.2 µM, a GI50 [1, 17] of 427 nM and a CC50 [13] of 776 nM. For the same compound, the CC50 [5] was 550 nM.
Work on `O=C1C=CC(O)(c2cc3ccccc3n2S(=O)(=O)c2ccccc2)c2ccccc21` (stereo not drawn) [SIQ-10, 4-(1-benzenesulfonyl-1H-indol-2-yl)-4-hydroxy4H-naphthalen-1-one] yielded an LC50 [1, 16] of 7.76 µM, a GI50 [1, 17] of 447 nM and a CC50 [8] of 776 nM. The IC50 [3] was 205 nM, the IC50 [4] was 444 nM and the CC50 [5] was 794 nM.
In the case of `Cc1ccc(S(=O)(=O)n2c(C3(O)C=CC(=O)c4ccccc43)cc3ccccc32)cc1` (stereo not drawn) [SIQ-11, 4-hydroxy 4-[1-(toluene-4-sulfonyl)-1H-indol-2-yl]-4H-naphthalen-1-one], the GI50 [1, 15] is reported as > 1000 nM, the LC50 [1, 16] is reported as 5.62 µM and the GI50 [1, 17] is reported as 389 nM. The CC50 [8] was 724 nM, the IC50 [3] was 155 nM and the IC50 [4] was 391 nM. The CC50 [5] was 490 nM.
With `N.N.[Cl][Pt][Cl]` [cisplatin, reference compound] the “maximum T/C (Test/Control)” value ([7]; cisplatin alone, 4 mg/kg s.c. days 1 and 8) was 56%.
In the case of `O=CN/C=C/c1cc(O)ccc1O` [erbstatin], the half-life [14] is given as < 30 min.
